Key:
Experiment in all cases: In vitro cytotoxicity assay (MTT)
[1] = tested on: MDA-MB-231; format: cell-based, human; conditions: 6 days incubation
Method: (§1) In vitro cytotoxicity of compounds of the disclosure was assessed on several cancerous human cell lines. Cells were plated in 96-well plates at an appropriate density depending on the cell line (between 1000 and 10 000 cells/well in 100µL of appropriate culture media) and incubated at 37°C for 24 hours. Serial dilutions of the tested compound previously dissolved in culture media (50µL) were added, and incubation was carried at 37°C out for 6 days. MTT (5mg/mL in PBS, 20µL, Sigma-Aldrich) was added into the wells, and incubation was continued for 1 to 4 hours at 37°C. Culture media was then carefully removed, and well content was homogeneously dissolved with acidified isopropanol. Absorbance values were measured on a microplate reader using a wavelength of 570 nm (with a reference wavelength of 690 nm). The IC50 concentration values compared to untreated control cells were determined using inhibition dose response curve fitting (GraphPad Prism 9). Exatecan mesylate (cat#HY-13631A) and CR8 (CAS# 294646-77-8; cat#HY-18340) were purchased from MedChemExpress (China).

[2] = tested on: SKBR-3; format: cell-based, human; conditions: 6 days incubation
Method: as §1

[3] = tested on: BT-474; format: cell-based, human; conditions: BT-474, 6 days incubation, MTT
Method: as §1

[4] = tested on: NCI-N87; format: cell-based, human; conditions: 6 days incubation
Method: as §1

[5] = tested on: MDA-MB-453; format: cell-based, human; conditions: 6 days incubation
Method: as §1

[6] = tested on: JIMT-1; format: cell-based, human; conditions: Homo sapiens, 144 h, 6 days incubation
Method: as §1

[7] = tested on: MCF-7; format: cell-based; conditions: Homo sapiens, MCF7, 144 h, 6 days incubation
Method: as §1

[8] = tested on: HT-29; format: cell-based; conditions: Homo sapiens, 144 h, 6 days incubation
Method: as §1

[9] = tested on: BXPC3; format: cell-based; conditions: Homo sapiens, BXPC-3, 144 h, 6 days incubation
Method: as §1

[10] = Homo sapiens, MDA-MB-231, 144 h
[11] = Homo sapiens, MDA-MB-453, 144 h

Row | Structure (SMILES) | IC50 [1, 10] [nM] | IC50 ([2]; Homo sapiens, SK-BR-3, 144 h) [nM] | IC50 ([3]; Homo sapiens, BT-474, 144 h) [nM] | IC50 ([4]; Homo sapiens, NCI-N87, 144 h) [nM] | IC50 [5, 11] [nM] | IC50 [6] [nM] | IC50 [7] [nM] | IC50 [8] [nM] | IC50 [9] [nM] | IC50 [1] [nM] | IC50 [2] [nM] | IC50 [3] [nM] | IC50 [4] [nM] | IC50 [5] [nM]
1 | Brc1cnn2c(NCc3ccc(-c4ccccn4)cc3)nc(N3CCC(N4CCNCC4)CC3)nc12 [Compound 2622] | 12.7 | 2.24 | 13.5 | 3 | 21.1 | 4.84 | > 100 | 8.25 | 36.1 |  |  |  |  | 
2 | N[C@H]1CC[C@H](Nc2nc(NCc3ccc(-c4ccccn4)cc3)n3ncc(Cl)c3n2)CC1 [Compound 2629] | 0.66 | 0.27 | 1.75 | 0.94 | 0.77 | 0.11 | 3.91 | 0.36 | 1.17 |  |  |  |  | 
3 | N[C@H]1CC[C@H](CNc2nc(NCc3ccc(-c4ccccn4)cc3)n3ncc(Br)c3n2)CC1 [Compound 2635] | 12.9 | 0.83 | 23.1 | 15.9 | 17.9 | 3.52 | > 100 | 8.93 | 39.7 |  |  |  |  | 
4 | NCCNc1nc(NCc2ccc(-c3ccccn3)cc2)n2ncc(Br)c2n1 [Compound 2638] | 0.3 | 0.82 | 0.78 | 0.42 | 0.88 |  |  |  |  |  |  |  |  | 
5 | Brc1cnn2c(NCc3ccc(-c4ccccn4)cc3)nc(N[C@@H]3CCNC3)nc12 [Compound 2656] | 0.65 | 0.17 | 2.52 | 1.42 | 1.13 |  |  |  |  |  |  |  |  | 
6 | Brc1cnn2c(NCc3ccc(-c4ccccn4)cc3)nc(N[C@H]3CCNC3)nc12 [Compound 2657] |  |  |  |  |  |  |  |  |  | 0.56 | 0.13 | 1.71 | 0.43 | 0.77
7 | NCCCNc1nc(NCc2ccc(-c3ccccn3)cc2)n2ncc(Br)c2n1 [Compound 2658] | 1.98 | 0.77 | 4.57 | 6.43 | 7.84 |  |  |  |  |  |  |  |  | 
8 | Brc1cnn2c(NCc3ccc(-c4ccccn4)cc3)nc(N[C@@H]3CCCNC3)nc12 [Compound 2659, 8-bromo-N2-[(3R)-piperidin-3-yl]-N4-{[4-(pyridin-2-yl)phenyl]methyl}pyrazolo[1 ,5-a][1 ,3,5]triazine-2,4-diamine] | 0.26 |  | 0.72 | 0.34 | 0.4 |  |  |  |  |  | 0.72 |  |  | 
9 | Brc1cnn2c(NCc3ccc(-c4ccccn4)cc3)nc(N[C@@H]3CCCNC3)nc12 [Compound 2660, 8-bromo-N2-[(3R)-piperidin-3-yl]-N4-{[4-(pyridin-2-yl)phenyl]methyl}pyrazolo[1,5-a][1 ,3,5]triazine-2,4-diamine] |  |  |  |  |  |  |  |  |  | 0.43 | 0.11 | 1.25 | 0.49 | 0.68
10 | N[C@H]1CC[C@H](Nc2nc(NCc3ccc(-c4ccccn4)cc3)n3ncc(Br)c3n2)C1 [Compound 2669] | 0.44 | 0.67 | 1.75 | 0.39 | 0.59 |  |  |  |  |  |  |  |  | 
11 | N[C@H]1CCCC[C@H]1Nc1nc(NCc2ccc(-c3ccccn3)cc2)n2ncc(Br)c2n1 [Compound 2672] | 0.46 | 0.24 | 2.12 | 0.55 | 0.76 |  |  |  |  |  |  |  |  | 

From EP4512427A1, “ANTIBODY-DRUG CONJUGATES BASED ON MOLECULAR GLUE DEGRADERS AND USES THEREOF” (Mablink Bioscience, priority 2023, dated 2025)
